US7994209B2, “3-phenoxymethylpyrrolidine compounds” (Theravance, Inc., priority 2009, dated 2011)

What was measured:
[1] = target: T1, hSERT (Homo sapiens, UniProt P31645); test: hSERT membrane radioligand binding assay (3H-citalopram), Assay 1; details: SERT pKi, hSERT HEK-293 membranes, 1.0 nM 3H-citalopram; values given as lower bounds
[2] = target: T1, hSERT; test: hSERT neurotransmitter uptake assay (3H-5-HT), Assay 2; assay type: cell-based; design: expressed in transfected cells; host or cells: HEK-293; details: serotonin reuptake inhibition, 3H-5-HT uptake, HEK-293 hSERT cells (values without asterisk); read-out: SERT pIC50 (converted)
[3] = target: T2, hNET (Homo sapiens, UniProt P23975); test: hNET membrane radioligand binding assay (3H-nisoxetine), Assay 1
T2 sequence (P23975 whole entry): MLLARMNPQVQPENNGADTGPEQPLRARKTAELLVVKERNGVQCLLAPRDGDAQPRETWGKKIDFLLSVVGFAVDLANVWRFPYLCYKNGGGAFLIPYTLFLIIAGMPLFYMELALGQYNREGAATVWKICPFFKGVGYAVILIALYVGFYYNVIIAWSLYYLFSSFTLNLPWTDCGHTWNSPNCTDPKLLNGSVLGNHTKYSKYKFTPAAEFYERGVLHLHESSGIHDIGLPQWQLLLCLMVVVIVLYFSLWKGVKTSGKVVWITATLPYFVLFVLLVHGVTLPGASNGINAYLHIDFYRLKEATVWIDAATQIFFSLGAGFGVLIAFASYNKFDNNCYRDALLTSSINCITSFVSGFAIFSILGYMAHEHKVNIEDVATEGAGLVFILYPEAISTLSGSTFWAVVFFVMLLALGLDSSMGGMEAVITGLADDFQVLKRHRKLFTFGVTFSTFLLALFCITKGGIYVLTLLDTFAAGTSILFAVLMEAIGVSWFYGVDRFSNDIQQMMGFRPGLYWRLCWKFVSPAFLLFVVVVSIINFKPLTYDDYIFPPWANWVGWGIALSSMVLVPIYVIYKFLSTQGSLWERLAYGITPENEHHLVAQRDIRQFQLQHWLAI

[4] = target: T2, hNET; test: hNET neurotransmitter uptake assay (3H-NE), Assay 2; assay type: cell-based; design: expressed in transfected cells; host or cells: HEK-293; details: norepinephrine reuptake inhibition, 3H-NE uptake, HEK-293 hNET cells (values without asterisk); read-out: NET pIC50 (converted)

T1 sequence (P31645 whole entry): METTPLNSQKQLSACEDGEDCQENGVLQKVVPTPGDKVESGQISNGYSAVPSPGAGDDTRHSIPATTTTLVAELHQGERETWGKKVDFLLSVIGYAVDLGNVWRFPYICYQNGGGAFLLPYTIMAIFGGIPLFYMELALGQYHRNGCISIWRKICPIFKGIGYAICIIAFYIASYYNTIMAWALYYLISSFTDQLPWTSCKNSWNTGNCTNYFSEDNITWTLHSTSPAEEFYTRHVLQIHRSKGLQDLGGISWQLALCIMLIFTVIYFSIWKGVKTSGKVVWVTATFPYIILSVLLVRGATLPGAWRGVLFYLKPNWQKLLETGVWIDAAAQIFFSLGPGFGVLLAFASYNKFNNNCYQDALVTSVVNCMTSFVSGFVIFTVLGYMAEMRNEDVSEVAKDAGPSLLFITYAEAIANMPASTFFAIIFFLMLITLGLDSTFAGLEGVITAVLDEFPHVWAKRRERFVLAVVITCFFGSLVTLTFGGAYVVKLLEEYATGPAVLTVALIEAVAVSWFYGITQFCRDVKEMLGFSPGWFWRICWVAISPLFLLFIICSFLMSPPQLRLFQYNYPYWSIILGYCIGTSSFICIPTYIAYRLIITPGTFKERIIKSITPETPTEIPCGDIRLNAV

Row | Compound | Ki [1] [µM] | IC50 [2] [µM] | Ki [3] [µM] | IC50 [4] [µM]
1 | CC(C)CC(Oc1c(Cl)cccc1Cl)C1CCNC1 (centres unmarked) [Example 10-53, 3-[1-(2,6-Dichlorophenoxy)-3-methylbutyl]pyrrolidine] | ≤ 0.01 | ≤ 0.01 | ≤ 0.01 | ≤ 0.01
2 | CC(C)C[C@H](Oc1c(Cl)cccc1Cl)[C@H]1CCNC1 [Example 10-54, (S)-3-[(S)-1-(2,6-Dichlorophenoxy)-3-methylbutyl]pyrrolidine] | ≤ 0.01 | ≤ 0.01 | ≤ 0.01 | ≤ 0.01
3 | CC(C)C[C@H](Oc1cc(F)c(F)cc1F)[C@H]1CCNC1 [Example 10-57, (S)-3-[(S)-3-Methyl-1-(2,4,5-trifluorophenoxy)butyl]pyrrolidine] | ≤ 0.01 | ≤ 0.1 | ≤ 0.01 | ≤ 0.01
4 | CC(C)CC(Oc1c(Cl)ccc(Cl)c1F)C1CCNC1 (centres unmarked) [Example 10-58, 3-[1-(3,6-Dichloro-2-fluorophenoxy)-3-methylbutyl]pyrrolidine] | ≤ 0.01 | ≤ 0.01 | ≤ 0.01 | ≤ 0.01
5 | CC(C)CC(Oc1c(F)ccc(Cl)c1F)C1CCNC1 (centres unmarked) [Example 10-59, 3-[1-(3-Chloro-2,6-difluorophenoxy)-3-methylbutyl]pyrrolidine] | ≤ 0.01 | ≤ 0.01 | ≤ 0.01 | ≤ 0.01
6 | CC(C)C[C@H](Oc1ccc(Cl)c(Cl)c1F)[C@H]1CCNC1 [Example 10-61, (S)-3-[(S)-1-(3,4-Dichloro-2-fluorophenoxy)-3-methylbutyl]pyrrolidine] | ≤ 0.01 | ≤ 0.01 | ≤ 0.01 | ≤ 0.01
7 | CC(C)CC(Oc1c(F)ccc(F)c1Cl)C1CCNC1 (centres unmarked) [Example 10-62, 3-[1-(2-Chloro-3,6-difluorophenoxy)-3-methylbutyl]pyrrolidine] | ≤ 0.01 | ≤ 0.01 | ≤ 0.01 | ≤ 0.01
8 | CC(C)CC(Oc1c(F)ccc(Cl)c1Cl)C1CCNC1 (centres unmarked) [Example 10-64, 3-[1(2,3-Dichloro-6-fluorophenoxy)-3-methylbutyl]pyrrolidine] | ≤ 0.01 | ≤ 0.01 | ≤ 0.01 | ≤ 0.01
9 | CC(C)CC(Oc1c(F)cc(Cl)cc1F)C1CCNC1 (centres unmarked) [Example 10-66, 3-[1-(4-Chloro-2,6-difluorophenoxy)-3-methylbutyl]pyrrolidine] | ≤ 0.01 | ≤ 0.01 | ≤ 0.01 | ≤ 0.01
10 | CC(C)C[C@H](Oc1ccc(Cl)c(F)c1F)[C@H]1CCNC1 [Example 10-68, (S)-3-[(S)-1-(4-Chloro-2,3-difluorophenoxy)-3-methylbutyl]pyrrolidine] | ≤ 0.01 | ≤ 0.01 | ≤ 0.01 | ≤ 0.01
11 | CC(C)C[C@H](Oc1c(Cl)ccc(Cl)c1F)[C@H]1CCNC1 [Example 10-69, (S)-3-[(S)-1-(3,6-Dichloro-2-fluorophenoxy)-3-methylbutyl]pyrrolidine] | ≤ 0.01 | ≤ 0.01 | ≤ 0.01 | ≤ 0.01
12 | CC(C)CC(Oc1ccc(Cl)c(F)c1)C1CCNC1 (centres unmarked) [Example 10-70, 3-[1-(4-Chloro-3-fluorophenoxy)-3-methylbutyl]pyrrolidine] | ≤ 0.01 | ≤ 0.01 | ≤ 0.01 | ≤ 0.01
13 | CC(C)C[C@@H](Oc1ccc(Cl)c(Cl)c1)[C@H]1CCNC1 [Example 10-73, (S)-3-[(R)-1-(3,4-Dichlorophenoxy)-3-methylbutyl]pyrrolidine] | ≤ 0.01 | ≤ 0.01 | ≤ 0.01 | ≤ 0.01
14 | CC(C)C[C@H](Oc1cc(Cl)cc(Cl)c1)[C@H]1CCNC1 [Example 10-77, (S)-3-[(S)-1-(3,5-Dichlorophenoxy)-3-methylbutyl]pyrrolidine] | ≤ 0.01 | ≤ 0.01 | ≤ 0.01 | ≤ 0.01
15 | CC(C)CC(Oc1cc(Cl)cc(Cl)c1)C1CCNC1 (centres unmarked) [Example 10-78, 3-[1-(3,5-Dichlorophenoxy)-3-methylbutyl]pyrrolidine] | ≤ 0.01 | ≤ 0.01 | ≤ 0.01 | ≤ 0.01
16 | CC(C)C[C@@H](Oc1cc(Cl)cc(Cl)c1)[C@H]1CCNC1 [Example 10-79, (S)-3-[(R)-1-(3,5-Dichlorophenoxy)-3-methylbutyl]pyrrolidine] | ≤ 0.01 | ≤ 0.01 | ≤ 0.01 | ≤ 0.01
17 | CC(C)C[C@H](Oc1cc(F)cc(Cl)c1)[C@H]1CCNC1 [Example 10-81, (S)-3-[(S)-1-(3-Chloro-5-fluorophenoxy)-3-methylbutyl]pyrrolidine] | ≤ 0.01 | ≤ 0.01 | ≤ 0.01 | ≤ 0.01
18 | CC(C)CC(Oc1cc(F)cc(Cl)c1)C1CCNC1 (centres unmarked) [Example 10-82, 3-[1-(3-Chloro-5-fluorophenoxy)-3-methylbutyl]pyrrolidine] | ≤ 0.01 | ≤ 0.01 | ≤ 0.01 | ≤ 0.01

Row | Compound | Ki [1] [µM] | IC50 [2] [µM] | Ki [3] [µM] | IC50 [4] [µM]
19 | CC(C)CC(Oc1c(Cl)c(F)cc(F)c1Cl)C1CCNC1 (centres unmarked) [Example 10-84, 3-[1-(2,6-Dichloro-3,5-difluorophenoxy)-3-methylbutyl]pyrrolidine] | ≤ 0.01 | ≤ 0.01 | ≤ 0.01 | ≤ 0.01
20 | CC(C)C[C@H](Oc1c(F)c(F)cc(F)c1Cl)[C@H]1CCNC1 [Example 10-86, (S)-3-[(S)-1-(2-Chloro-3,5,6-trifluorophenoxy)-3-methylbutyl]pyrrolidine] | ≤ 0.01 | ≤ 0.01 | ≤ 0.01 | ≤ 0.01
21 | CC[C@H](Oc1cccc2ccccc12)[C@H]1CCNC1 [Example 13, (S)-3-[(s)-1-(Naphthalen-1-yloxy)propyl]pyrrolidine] | ≤ 0.01 | ≤ 0.01 | ≤ 0.01 | ≤ 0.01
22 | CC[C@@H](Oc1cccc2ccccc12)[C@H]1CCNC1 [Example 14-1, (S)-3-[(R)-1-(Naphthalen-1-yloxy)propyl]pyrrolidine] | ≤ 0.01 | ≤ 0.01 | ≤ 0.01 | ≤ 0.01
23 | CCC[C@@H](Oc1cccc2ccccc12)[C@H]1CCNC1 [Example 14-2, (S)-3-[(R)-1-(Naphthalen-1-yloxy)butyl]pyrrolidine] | ≤ 0.01 | ≤ 0.01 | ≤ 0.01 | ≤ 0.01
24 | CCC[C@H](Oc1cccc2ccccc12)[C@H]1CCNC1 [Example 14-3, (S)-3-[(S)-1-(Naphthalen-1-yloxy)butyl]pyrrolidine] | ≤ 0.01 | ≤ 0.01 | ≤ 0.01 | ≤ 0.01
25 | CC(C)[C@H](Oc1cccc2ccccc12)[C@H]1CCNC1 [Example 14-5, (S)-3-[(S)-2-Methyl-1-(naphthalen-1-yloxy)propyl]pyrrolidine] | ≤ 0.01 | ≤ 0.01 | ≤ 0.01 | ≤ 0.01
26 | Cc1ccccc1O[C@@H](C1CC1)[C@H]1CCNC1 [Example 16-3, (S)-3-((S)cyclopropyl-o-tolyloxymethyl)pyrrolidine] | ≤ 0.1 | ≤ 0.316 | ≤ 0.01 | ≤ 0.01
27 | Clc1cccc(O[C@H](C2CC2)[C@H]2CCNC2)c1Cl [Example 16-7, (S)-3-[(R)cyclopropyl-(2,3-dichlorophenoxy)methyl]pyrrolidine] | ≤ 0.01 | ≤ 0.01 | ≤ 0.01 | ≤ 0.01
28 | Clc1cccc(O[C@@H](C2CC2)[C@H]2CCNC2)c1Cl [Example 16-8, (S)-3-[(S)cyclopropyl-(2,3-dichlorophenoxy)methyl]pyrrolidine] | ≤ 0.01 | ≤ 0.01 | ≤ 0.01 | ≤ 0.01
29 | Fc1cccc(O[C@@H](C2CC2)[C@H]2CCNC2)c1Cl [Example 16-9, (S)-3-[(S)-(2-Chloro-3-fluorophenoxy)cyclopropylmethyl]pyrrolidine] | ≤ 0.01 | ≤ 0.1 | ≤ 0.01 | ≤ 0.01
30 | Fc1cccc(O[C@H](C2CC2)[C@H]2CCNC2)c1Cl [Example 16-10, (S)-3-[(R)-(2-Chloro-3-fluorophenoxy)cyclopropylmethyl]pyrrolidine] | ≤ 0.01 | ≤ 0.1 | ≤ 0.01 | ≤ 0.1
31 | FC(F)(F)c1c(Cl)cccc1O[C@@H](C1CC1)[C@H]1CCNC1 [Example 16-16, (S)-3-[(S)-(3-Chloro-2-trifluoromethylphenoxy)cyclopropylmethyl]pyrrolidine] | ≤ 0.01 | ≤ 0.01 | ≤ 0.01 | ≤ 0.01
32 | Clc1ccc(O[C@@H](C2CC2)[C@H]2CCNC2)c(Cl)c1 [Example 16-19, (S)-3-[(S)cyclopropyl-(2,4-dichlorophenoxy)methyl]pyrrolidine] | ≤ 0.01 | ≤ 0.01 | ≤ 0.01 | ≤ 0.01
33 | Fc1ccc(O[C@@H](C2CC2)[C@H]2CCNC2)c(Cl)c1 [Example 16-22, (S)-3-[(S)-(2-Chloro-4-fluorophenoxy)cyclopropylmethyl]pyrrolidine] | ≤ 0.01 | ≤ 0.1 | ≤ 0.01 | ≤ 0.01
34 | Cc1ccc(O[C@@H](C2CC2)[C@H]2CCNC2)c(Cl)c1 [Example 16-23, (S)-3-[(S)-(2-Chloro-4-methylphenoxy)cyclopropylmethyl]pyrrolidine] | ≤ 0.01 | ≤ 0.01 | ≤ 0.01 | ≤ 0.01
35 | Cc1ccc(O[C@@H](C2CC2)[C@H]2CCNC2)c(Br)c1 [Example 16-25, (S)-3-[(S)-(2-Bromo-4-methylphenoxy)cyclopropylmethyl]pyrrolidine] | ≤ 0.01 | ≤ 0.01 | ≤ 0.01 | ≤ 0.01
